Several values for one entry are separate records, joined by “and”; a condition that tells them apart may be missing. Equal entries are not always repeated.
How the values were obtained:
yellowjackets [1] = assay: Third field trap trial, LHS upper patio, 12 traps; format: in vivo, Vespula pensylvanica; settings: 8/11-9/7/05, LHS UP; for total YJ: 4 repetitions of each treatment
Method: A third trial was performed in the same location using a total of 12 traps. There were 4 repetitions of each treatment presented.

yellowjackets [2] = assay: Second field trap experiment, LHS upper patio, 4 sets of three treatments; format: in vivo, Vespula pensylvanica; settings: 7/21-8/10/05, twenty days, LHS UP, 4 traps per treatment (one octyl butyrate trap lost)
Excerpt: A second experiment was set up at the Lawrence Hall of Science upper patio, placing 4 sets of the three treatments randomly around the patio, a total of 12 traps. One trap containing octyl butyrate was lost and not counted.

Vespula pensylvanica = assay: Initial field trap experiment: octyl butyrate, heptyl butyrate or 1:1 mixture, LHS north lawn; format: in vivo; settings: one trap per composition, 6/15-7/21 (approximately 1 month), LHS NL
Method: Several experiments were performed to determine the relative attractiveness of heptyl butyrate, octyl butyrate and a 1:1 mixture of the two esters. In an initial experiment, one trap each containing octyl butyrate, heptyl butyrate, or a 1:1 mixture of the two esters, was placed around the perimeter of the north lawn of the Lawrence Hall of Science, University of California, Berkeley. After approximately 1 month, the yellowjackets in each trap were collected and counted. […]

yellowjackets [3] = assay: Three ester trap trials taken together (totals and conclusions); format: in vivo, Vespula pensylvanica; settings: for relative attractiveness of the esters, in words: heptyl butyrate, octyl butyrate and their combination compared; for Total numbers of yellowjackets caught for all trials: sum of Tables 1-3
Method: Several experiments were performed to determine the relative attractiveness of heptyl butyrate, octyl butyrate and a 1:1 mixture of the two esters. In an initial experiment, one trap each containing octyl butyrate, heptyl butyrate, or a 1:1 mixture of the two esters, was placed around the perimeter of the north lawn of the Lawrence Hall of Science, University of California, Berkeley. After approximately 1 month, the yellowjackets in each trap were collected and counted. […] The results are shown below in Table 1: A second experiment was set up at the Lawrence Hall of Science upper patio, placing 4 sets of the three treatments randomly around the patio, a total of 12 traps. One trap containing octyl butyrate was lost and not counted. After twenty days, the total numbers of yellowjackets caught for each of the treatments is shown in table 2 below: A third trial was performed in the same location using a total of 12 traps. There were 4 repetitions of each treatment presented. The total number of yellowjackets caught per each treatment is shown in table 3: Total numbers of yellowjackets caught for all trials are given below: The trial from Jul. 21-Aug. 10, 2005 cannot be assumed to be an anomaly.

yellowjackets [4] = assay: Field trap test octyl butyrate vs. OB + 1% MSA + 1% t-2-H, LHS North Lawn; format: in vivo, Vespula pensylvanica; settings: three traps per treatment, 8 ml attractant, 1% each MSA and t-2-H; listed as OB
Method: In a separate experiment, a mixture of octyl butyrate and the two kairomones methyl salicylate (MSA) and trans-2-hexenol (t-2-H), where the two kairomones were each present in 1% by weight quantities, was tested against octyl butyrate alone. Three repetitions of each treatment were tested in yellowjacket traps placed around the Lawrence Hall of Science North Lawn on Jul. 21, 2005. Each lure contained 8 ml of attractant. The traps were collected and the yellowjackets removed and counted on Aug. 11, 2005. […] A total of 40 yellowjackets were caught using the combination OB+MSA+t-2-H, whereas only 31 yellowjackets were caught in traps baited with OB alone.

yellowjackets [5] = assay: Field trap test octyl butyrate vs. OB + 1% methyl salicylate, LHS Back Plaza; format: in vivo, Vespula pensylvanica; settings: 1% MSA
Method: In one experiment, octyl butyrate (OB) was compared with OB containing 1% methyl salicylate (MSA). Six traps were placed at the Lawrence Hall of Science Back Plaza on Jul. 21, 2005. Three of the traps were baited with octyl butyrate alone. The other three were baited with the mixture of 1% methyl salicylate in octyl butyrate. Each of the traps contained 8ml of attractant dispensed on a cotton pad, which was placed inside the trap. The traps were collected on Sep. 8, 2005, and the yellowjackets counted.

yellowjackets [6] = assay: Field trap test octyl butyrate vs. OB + 1% trans-2-hexenol, Strawberry Baseball Diamonds; format: in vivo, Vespula pensylvanica; settings: 8 ml attractant, 27 days; for # of YJ (single trap): per trap, t-2-H 1% by weight
Method: In another experiment conducted at the Strawberry Baseball Diamonds, octyl butyrate was compared to octyl butyrate+t-2-hexenol, where the trans-2-hexenol was present in 1% concentration by weight. […] For each treatment, 8 ml of attractant was used. The traps were collected and counted after 27 days. The total number of yellowjackets caught in the three traps with octyl butyrate alone is 113. A total of 170 yellowjackets were caught in the three traps baited with octyl butyrate +t-2-hexenol.

Structure (SMILES)	Avg catch per trap (yellowjackets [1])	total YJ (yellowjackets [1])	Total # YJ (yellowjackets [2])	# YJ caught (Vespula pensylvanica)	relative attractiveness of the esters, in words (yellowjackets [3])	Total numbers of yellowjackets caught for all trials (yellowjackets [3])	Totals (YJ per treatment) (yellowjackets [4])	# of YJ (single trap) (yellowjackets [5]; per trap, 8 ml attractant on cotton pad, LHS Back Plaza, collected Sep. 8, 2005)	Totals (YJ per treatment) (yellowjackets [5]; three traps per treatment, 8 ml attractant)	# of YJ (single trap) (yellowjackets [6]; listed as OB)	# of YJ (single trap) (yellowjackets [6]; listed as Octyl (OB))	Total YJ per Treatment (yellowjackets [6]; three traps per treatment, t-2-H 1%)
CCCCCCCOC(=O)CCC [heptyl butyrate]	61	242	235	148	more effective in luring and capturing yellowjackets than octyl butyrate	625	–	–	–	–	–	–
CCCCCCCCOC(=O)CCC [octyl butyrate]	45	134	145	36	inferior attractant to heptyl butyrate	315	31 and 30	0	no yellowjackets were caught	38 and 41	34	113

Source: US20090081154A1, “Attractant composition for yellowjackets” (priority 2006, published 2009)
